Results reported in US10920265B2, “Compounds and methods for detection of enzymes that remove methyl succinyl groups from epsilon-amino lysine moieties” (Enzo Life Sciences, Inc., priority 2011, dated 2021).
*: point of attachment. AMC = Cc1cc(=O)oc2cc(N*)ccc12

Target: T1, SIRT5 (Homo sapiens, UniProt Q9NXA8)
T1 sequence (Q9NXA8 37-310): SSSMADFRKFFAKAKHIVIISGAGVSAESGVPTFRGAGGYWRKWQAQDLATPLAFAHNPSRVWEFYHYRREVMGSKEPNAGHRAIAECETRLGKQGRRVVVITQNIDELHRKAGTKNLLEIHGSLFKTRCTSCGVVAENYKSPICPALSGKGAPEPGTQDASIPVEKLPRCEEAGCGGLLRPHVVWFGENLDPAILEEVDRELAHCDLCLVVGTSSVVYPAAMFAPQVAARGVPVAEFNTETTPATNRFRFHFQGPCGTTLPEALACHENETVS
Assay: SIRT5 desuccinylation/deacetylation of fluorogenic lysyl substrates, trypsin developer
Format: biochemical
Parameters: purchased Enzo Life Sciences BML-SE555
Details: for Dependence of SIRT5 initial rate on substrate concentration: 20 min. at 37° C.
Protocol: FIG. 3 is graphs showing that SIRT5 catalyzes NAD^+-dependent desuccinylation of Ac-Lys(ε-succinyl)-AMC far more efficiently than NAD^+-dependent deacetylation of Ac-Arg-His-Lys-Lys(ε-acetyl)-AMC. Fifty μl reactions in Assay Buffer (50 mM Tris/HCl, pH 8.0, 137 mM NaCl, 2.7 mM KCl, 1 mM MgCl2, 1 mg/ml BSA) included 50 μM of either Ac-Lys(ε-succinyl)-AMC or Ac-Arg-His-Lys-Lys(ε-acetyl)-AMC, and, where indicated, 500 μM NAD^+ and 5 μg recombinant human SIRT5 (Enzo Life Sciences Cat. # BML-SE555). […] AMC fluorescence was read in a Cytofluor II plate-reading fluorimeter (Perseptive Biosystems) at wavelengths 360 nm (excitation)/460 nm (emission), Gain 54. Data represent the mean of two (No Enzyme) or three (+SIRT5) determinations and error bars the standard deviations. Panels A and B present the same data, but with the +SIRT5/+NAD^+/Ac-Lys(ε-succinyl)-AMC bar omitted from B to show the detail on the remaining bars. Statistically significant differences (Student's t-test) are indicated by asterisks as follows: *: p<0.02 vs. corresponding No Enzyme control; **: p<0.001 vs. corresponding −NAD^+ control; ***: p<3×10^−6 vs. both No Enzyme and −NAD^+ controls.
FIG. 4 is a graph showing that Ac-Lys(Succ.)-AMC enables SIRT5 assay at low enzyme concentrations. Fifty μl reactions in Assay Buffer (50 mM Tris/HCl, pH 8.0, 137 mM NaCl, 2.7 mM KCl, 1 mM MgCl2, 1 mg/ml BSA) included 2 or 10 μM Ac-Lys(ε-succinyl)-AMC, 500 μM NAD^+ and, where indicated, 5 ng recombinant human SIRT5 (Enzo Life Sciences Cat. # BML-SE555). […] AMC fluorescence was read in a Synergy 2 plate-reading fluorimeter (BioTek) at wavelengths 360 nm (excitation)/460 nm (emission), Gain 40. Data represent the mean of two (No Enzyme) or three (5 ng SIRT5) determinations and error bars the standard deviations. Statistically significant differences (Student's t-test) are indicated by asterisks as follows: *: p=0.002; **: p=0.009, each with respect to the corresponding “No SIRT5” samples.
FIG. 5 is graphs showing dependence of SIRT5 initial rate kinetics on the concentrations of Ac-Lys(Succ.)-AMC and Ac-Lys(Ac.)-AMC. Fifty μl desuccinylation or deacetylation reactions were performed as described earlier (FIG. 4), with the indicated concentrations of Ac-Lys(Succ.)-AMC or Ac-Lys(Ac.)-AMC and 1 mM NAD^+, for 20 min. at 37° C. Reactions with Ac-Lys(Succ.)-AMC contained 10 ng SIRT5 and those with Ac-Lys(Ac.)-AMC contained 5 SIRT5. Reactions were stopped and AMC cleaved from deacetylated or desuccinylated substrate by trypsin treatment as described earlier (FIG. 4). AMC fluorescence was read in a Synergy 2 plate-reading fluorimeter (BioTek) at wavelengths 360 nm (excitation)/460 nm (emission), Gain 40. Data represent the mean of the differences of three determinations with enzyme (10 ng or 5 SIRT5) from the mean of two no enzyme samples for each substrate concentration. Error bars are the standard deviations from those means. Fluorescence differences were converted to specific activities (pmol/min/μg) by measuring the fluorescence increase due to the addition a standard solution of AMC (5 μl of a […]).
FIG. 6 is a graph showing the dependence of SIRT5 initial rate kinetics of Ac-Lys(Succ.)-AMC desuccinylation on the concentration of NAD^+. Reaction conditions were as described for FIG. 5 but with a constant Ac-Lys(Succ.)-AMC concentration of 0.5 mM and the indicated concentrations of NAD^+. Data analysis and determination of kinetic parameters were as described (FIG. 5).
FIG. 12 is graphs showing that SIRT5 catalyzes NAD^+-dependent desuccinylation of (Ac-Lys(Succ.))2-R110 far more efficiently than NAD^+-dependent deacetylation of (Ac-Lys(Ac.))2-R110. Fifty μl reactions in Assay Buffer (50 mM Tris/HCl, pH 8.0, 137 mM NaCl, 2.7 mM KCl, 1 mM MgCl2, 1 mg/ml BSA) included 50 μM of either (Ac-Lys(Succ.))2-R110 or (Ac-Lys(Ac.))2-R110, and, where indicated, 500 μM NAD^+ and 5 μg recombinant human SIRT5 (Enzo Life Sciences Cat. # BML-SE555). […]

[1] = SIRT5, 50 μM substrate, 500 μM NAD^+

Molecule | Activity (pmol/min/μg) [1] | Dependence of SIRT5 initial rate on substrate concentration (1 mM NAD^+) | Activity [1] [pmol/min/µg] | Fraction of substrate desuccinylated (5 μg SIRT5 (3 μM in 50 μl), 50 μM substrate, 60 min.) [%] | SIRT5/NAD^+ dependence of desuccinylation (5 μg SIRT5, 50 μM substrate, 500 μM NAD^+, 60 min.) | Desuccinylation relative to deacetylation of Ac-Arg-His-Lys-Lys(ε-acetyl)-AMC (5 μg SIRT5 per 50 μl, 50 μM substrate, 500 μM NAD^+, 60 min.) | kcat (varied substrate: Lysyl, 1 mM NAD^+) [s⁻¹] | kcat (varied substrate: NAD^+, constant 0.5 mM Ac-Lys(Succ.)-AMC) [s⁻¹]
Ac-Arg-His-Lys-Lys(ε-acetyl)-AMC (Ac-RHKK(Ac)-{AMC}; SMILES CC(=O)NCCCC[C@H](NC(=O)[C@H](CCCCN)NC(=O)[C@H](Cc1c[nH]cn1)NC(=O)[C@H](CCCNC(=N)N)NC(C)=O)C(=O)Nc1ccc2c(C)cc(=O)oc2c1) [Ac-RHKK(Ac)-AMC, p53 peptide fluorogenic deacetylase substrate, Cat. # BML-KI177, reference compound] | Ac-RHKK(Ac)-AMC/0.364 pmol/min/μg | – | – | – | – | – | – | –
CC(=O)NCCCCC(NC(C)=O)C(=O)Nc1ccc2c(C)cc(=O)oc2c1 (stereo not shown) [Ac-Lys(Ac.)-AMC, Ac-Lys(ε-acetyl)-AMC, reference compound] | – | remains linear over the concentration range of the assay | 0.0174 | – | – | – | – | –
CC(=O)N[C@@H](CCCCNC(=O)CCC(=O)O)C(=O)Nc1ccc2c(C)cc(=O)oc2c1 [Compound 1, N—(N^α-acetyl-L-Lysine(N^ε-succinyl))-AMC] | – | displays saturation kinetics | 115 | ~50 | entirely dependent on the presence of SIRT5 and NAD^+ | at least 250 fold | 0.26 | 0.29
